# Source: ChEMBL document CHEMBL4138123, “Design, synthesis and biological evaluation of novel pyrazolochalcones as potential modulators of PI3K/Akt/mTOR pathway and inducers of apoptosis in breast cancer cells” (Eur J Med Chem, 2017)
# How the values were obtained:
# Type in all cases: functional
# NCI-H460 = test: Cytotoxicity against human NCI-H460 cells assessed as cell growth at 1 uM after 48 hrs by sulforhodamine B assay relative to control; conditions: NCI-H460, 48 h, read-out: Activity
# HCT-15 = test: Cytotoxicity against human HCT15 cells assessed as cell growth at 0.1 uM after 48 hrs by sulforhodamine B assay relative to control; conditions: HCT-15, 48 h, read-out: Activity
# SF-268 = test: Cytotoxicity against human SF268 cells assessed as cell growth at 0.01 uM after 48 hrs by sulforhodamine B assay relative to control; conditions: SF-268, 48 h, read-out: Activity
# K562 = test: Cytotoxicity against human K562 cells assessed as cell growth at 0.01 uM after 48 hrs by sulforhodamine B assay relative to control; conditions: K562, 48 h, read-out: Activity
# CCRF-CEM = test: Cytotoxicity against human CCRF-CEM cells assessed as cell growth at 10 uM after 48 hrs by sulforhodamine B assay relative to control; conditions: read-out: Activity
# UACC-257 = test: Cytotoxicity against human UACC257 cells assessed as cell growth at 0.1 uM after 48 hrs by sulforhodamine B assay relative to control; conditions: UACC-257, 48 h, read-out: Activity
# OVCAR-3 = test: Cytotoxicity against human OVCAR3 cells assessed as growth inhibition after 48 hrs by sulforhodamine B assay; conditions: OVCAR-3, 48 h
# SK-MEL-28 = test: Cytotoxicity against human SK-MEL-28 cells assessed as cell growth at 1 uM after 48 hrs by sulforhodamine B assay relative to control; conditions: SK-MEL-28, 48 h, read-out: Activity
# TK-10 [1] = test: Cytotoxicity against human TK10 cells assessed as growth inhibition after 48 hrs by sulforhodamine B assay; conditions: TK-10, 48 h
# OVCAR-8 = test: Cytotoxicity against human OVCAR8 cells assessed as cell growth at 0.01 uM after 48 hrs by sulforhodamine B assay relative to control; conditions: OVCAR-8, 48 h, read-out: Activity
# Malme-3M = test: Cytotoxicity against human MALME-3M cells assessed as cell growth at 10 uM after 48 hrs by sulforhodamine B assay relative to control; conditions: read-out: Activity
# ACHN = test: Cytotoxicity against human ACHN cells assessed as cell growth at 0.1 uM after 48 hrs by sulforhodamine B assay relative to control; conditions: read-out: Activity
# NCI-H522 [2] = test: Cytotoxicity against human NCI-H522 cells assessed as cell growth at 10 uM after 48 hrs by sulforhodamine B assay relative to control; conditions: NCI-H522, 48 h, read-out: Activity
# NCI-H226 [3] = test: Cytotoxicity against human NCI-H226 cells assessed as cell growth at 100 uM after 48 hrs by sulforhodamine B assay relative to control; conditions: NCI-H226, 48 h, read-out: Activity
# MDA-MB-435 [4] = test: Cytotoxicity against human MDA-MB-435 cells assessed as cell growth at 0.01 uM after 48 hrs by sulforhodamine B assay relative to control; conditions: MDA-MB-435, 48 h, read-out: Activity
# KM12 = test: Cytotoxicity against human KM12 cells assessed as growth inhibition after 48 hrs by sulforhodamine B assay; conditions: KM12, 48 h
# NCI-H226 [5] = test: Cytotoxicity against human NCI-H226 cells assessed as cell growth at 0.1 uM after 48 hrs by sulforhodamine B assay relative to control; conditions: NCI-H226, 48 h, read-out: Activity
# 786-0 = test: Cytotoxicity against human 786-0 cells assessed as cell growth at 0.1 uM after 48 hrs by sulforhodamine B assay relative to control; conditions: 786-0, 48 h, read-out: Activity
# NCI-H226 [6] = test: Cytotoxicity against human NCI-H226 cells assessed as cell growth at 10 uM after 48 hrs by sulforhodamine B assay relative to control; conditions: NCI-H226, 48 h, read-out: Activity
# TK-10 [7] = test: Cytotoxicity against human TK10 cells assessed as cell growth at 0.01 uM after 48 hrs by sulforhodamine B assay relative to control; conditions: TK-10, 48 h, read-out: Activity
# A549 = test: Cytotoxicity against human A549/ATCC cells assessed as cell growth at 0.01 uM after 48 hrs by sulforhodamine B assay relative to control; conditions: A549, 48 h, read-out: Activity
# UACC-62 = test: Cytotoxicity against human UACC62 cells assessed as growth inhibition after 48 hrs by sulforhodamine B assay; conditions: UACC-62, 48 h
# NCI-H522 [8] = test: Cytotoxicity against human NCI-H522 cells assessed as cell growth at 0.1 uM after 48 hrs by sulforhodamine B assay relative to control; conditions: NCI-H522, 48 h, read-out: Activity
# PC-3 = test: Cytotoxicity against human PC3 cells assessed as cell growth at 100 uM after 48 hrs by sulforhodamine B assay relative to control; conditions: PC-3, 48 h, read-out: Activity
# A498 [9] = test: Cytotoxicity against human A498 cells assessed as cell growth at 0.01 uM after 48 hrs by sulforhodamine B assay relative to control; conditions: A498, 48 h, read-out: Activity
# MDA-MB-435 [10] = test: Cytotoxicity against human MDA-MB-435 cells assessed as cell growth at 1 uM after 48 hrs by sulforhodamine B assay relative to control; conditions: MDA-MB-435, 48 h, read-out: Activity
# SF-539 = test: Cytotoxicity against human SF539 cells assessed as growth inhibition after 48 hrs by sulforhodamine B assay; conditions: SF-539, 48 h
# UO-31 = test: Cytotoxicity against human UO31 cells assessed as cell growth at 100 uM after 48 hrs by sulforhodamine B assay relative to control; conditions: UO-31, 48 h, read-out: Activity
# HL-60(TB) = test: Cytotoxicity against human HL-60(TB) cells assessed as growth inhibition after 48 hrs by sulforhodamine B assay; conditions: HL-60, 48 h
# SK-MEL-5 = test: Cytotoxicity against human SK-MEL-5 cells assessed as cell growth at 1 uM after 48 hrs by sulforhodamine B assay relative to control; conditions: SK-MEL-5, 48 h, read-out: Activity
# A498 [11] = test: Cytotoxicity against human A498 cells assessed as cell growth at 1 uM after 48 hrs by sulforhodamine B assay relative to control; conditions: A498, 48 h, read-out: Activity
# T47D = test: Cytotoxicity against human T47D cells assessed as cell growth at 0.01 uM after 48 hrs by sulforhodamine B assay relative to control; conditions: read-out: Activity
# M14 = test: Cytotoxicity against human M14 cells assessed as growth inhibition after 48 hrs by sulforhodamine B assay; conditions: M14, 48 h
# NCI-H322M = test: Cytotoxicity against human NCI-H322M cells assessed as cell growth at 0.01 uM after 48 hrs by sulforhodamine B assay relative to control; conditions: read-out: Activity
compound,measurement,setting,value
COc1cc(-c2cc(/C=C/C(=O)c3ccc(F)c(F)c3)[nH]n2)cc(OC)c1OC,growth at 1 µM,NCI-H460,103%
same,growth at 0.1 µM,HCT-15,95%
same,growth at 0.01 µM,SF-268,94%
same,growth at 0.01 µM,K562,100%
same,growth at 10 µM,CCRF-CEM,7%
same,growth at 0.1 µM,UACC-257,92%
same,LC50,OVCAR-3,43.6 µM
same,TGI,OVCAR-3,6.25 µM
same,growth at 1 µM,SK-MEL-28,98%
same,LC50,TK-10 [1],> 100 µM
same,TGI,TK-10 [1],7.42 µM
same,growth at 0.01 µM,OVCAR-8,95%
same,growth at 10 µM,Malme-3M,-3%
same,growth at 0.1 µM,ACHN,106%
same,growth at 10 µM,NCI-H522 [2],-38%
same,growth at 100 µM,NCI-H226 [3],-65%
same,growth at 0.01 µM,MDA-MB-435 [4],98%
same,LC50,KM12,> 100 µM
same,TGI,KM12,11.4 µM
same,growth at 0.1 µM,NCI-H226 [5],97%
same,growth at 0.1 µM,786-0,95%
same,growth at 10 µM,NCI-H226 [6],16%
same,growth at 0.01 µM,TK-10 [7],82%
same,growth at 0.01 µM,A549,101%
same,LC50,UACC-62,35.3 µM
same,TGI,UACC-62,7.44 µM
same,growth at 0.1 µM,NCI-H522 [8],99%
same,growth at 100 µM,PC-3,-41%
same,growth at 0.01 µM,A498 [9],100%
same,growth at 1 µM,MDA-MB-435 [10],88%
same,LC50 (concentration killing 50% of cells),SF-539,70 µM
same,TGI,SF-539,17.7 µM
same,growth at 100 µM,UO-31,-16%
same,LC50,HL-60(TB),> 100 µM
same,TGI,HL-60(TB),6.03 µM
same,growth at 1 µM,SK-MEL-5,90%
same,growth at 1 µM,A498 [11],81%
same,growth at 0.01 µM,T47D,95%
same,LC50 (concentration killing 50% of cells),M14,> 100 µM
same,TGI,M14,11.9 µM
same,growth at 0.01 µM,NCI-H322M,94%
COc1cc(C(=O)/C=C/c2cc(-c3cc(OC)c(OC)c(OC)c3)n[nH]2)cc(OC)c1OC,growth at 1 µM,NCI-H460,89%
same,growth at 0.1 µM,HCT-15,94%
same,growth at 0.01 µM,SF-268,99%
same,growth at 0.01 µM,K562,99%
same,growth at 10 µM,CCRF-CEM,-7%
same,growth at 0.1 µM,UACC-257,91%
same,LC50,OVCAR-3,5.79 µM
same,TGI,OVCAR-3,3.18 µM
same,growth at 1 µM,SK-MEL-28,100%
same,LC50,TK-10 [1],5.34 µM
same,TGI,TK-10 [1],2.8 µM
same,growth at 0.01 µM,OVCAR-8,100%
same,growth at 10 µM,Malme-3M,-57%
same,growth at 0.1 µM,ACHN,100%
same,growth at 10 µM,NCI-H522 [2],-97%
same,growth at 100 µM,NCI-H226 [3],-50%
same,growth at 0.01 µM,MDA-MB-435 [4],99%
same,LC50,KM12,5.77 µM
same,TGI,KM12,2.93 µM
same,growth at 0.1 µM,NCI-H226 [5],93%
same,growth at 0.1 µM,786-0,105%
same,growth at 10 µM,NCI-H226 [6],-92%
same,growth at 0.01 µM,TK-10 [7],99%
same,growth at 0.01 µM,A549,97%
same,LC50,UACC-62,7.6 µM
same,TGI,UACC-62,3.68 µM
same,growth at 0.1 µM,NCI-H522 [8],103%
same,growth at 100 µM,PC-3,-94%
same,growth at 0.01 µM,A498 [9],95%
same,growth at 1 µM,MDA-MB-435 [10],79%
same,LC50 (concentration killing 50% of cells),SF-539,6.23 µM
same,TGI,SF-539,2.83 µM
same,growth at 100 µM,UO-31,-100%
same,LC50,HL-60(TB),> 100 µM
same,TGI,HL-60(TB),5.52 µM
same,growth at 1 µM,SK-MEL-5,86%
same,growth at 1 µM,A498 [11],80%
same,growth at 0.01 µM,T47D,91%
same,LC50 (concentration killing 50% of cells),M14,6.13 µM
same,TGI,M14,3.32 µM
same,growth at 0.01 µM,NCI-H322M,96%
